What all share (assay type): biochemical
In one assay the target is T1, MMP-1 (Homo sapiens, UniProt P03956).
T1 sequence (P03956 100-469): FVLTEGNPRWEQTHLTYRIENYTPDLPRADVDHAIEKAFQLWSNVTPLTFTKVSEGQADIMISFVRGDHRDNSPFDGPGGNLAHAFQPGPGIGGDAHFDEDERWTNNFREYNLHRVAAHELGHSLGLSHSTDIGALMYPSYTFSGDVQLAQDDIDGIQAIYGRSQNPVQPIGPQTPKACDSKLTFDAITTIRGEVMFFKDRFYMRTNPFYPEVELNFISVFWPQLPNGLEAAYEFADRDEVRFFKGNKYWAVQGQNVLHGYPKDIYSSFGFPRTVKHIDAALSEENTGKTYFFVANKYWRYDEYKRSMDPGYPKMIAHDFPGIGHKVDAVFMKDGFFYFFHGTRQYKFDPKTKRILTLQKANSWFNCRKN
The assay is described as follows: MMP-1 inhibition (thiopeptide or fluorescent peptide substrate assay). As to conditions: read-out: MMP-1 IC50.

A further assay has as its target MMP-9 (Homo sapiens, UniProt P14780). The assay is described as follows: MMP-9 inhibition (thiopeptide or fluorescent peptide substrate assay). As to conditions: read-out: MMP-9 IC50.
For the next assay, the target named is MMP-13 (Homo sapiens, UniProt P45452). The assay is described as follows: MMP-13 inhibition (thiopeptide or fluorescent peptide substrate assay). As to conditions: read-out: MMP-13 IC50.
The target of a further assay is TACE (Homo sapiens, UniProt P78536). Kind of assay: TACE inhibition (fluorescent peptidyl substrate). As to conditions: for pIC50: read-out: TACE IC50; for inhibition at 1 µM: at 1µM concentration.

pIC50: −log10 of the molar value.

What is called pIC50 is the IC50 on a negative log10 scale, so that one unit is a factor of ten. As a reminder, the inhibition is the percentage by which the read-out fell short of the control. Read a high inhibition as a strong effect.

Chain of TACE (P78536 215-824): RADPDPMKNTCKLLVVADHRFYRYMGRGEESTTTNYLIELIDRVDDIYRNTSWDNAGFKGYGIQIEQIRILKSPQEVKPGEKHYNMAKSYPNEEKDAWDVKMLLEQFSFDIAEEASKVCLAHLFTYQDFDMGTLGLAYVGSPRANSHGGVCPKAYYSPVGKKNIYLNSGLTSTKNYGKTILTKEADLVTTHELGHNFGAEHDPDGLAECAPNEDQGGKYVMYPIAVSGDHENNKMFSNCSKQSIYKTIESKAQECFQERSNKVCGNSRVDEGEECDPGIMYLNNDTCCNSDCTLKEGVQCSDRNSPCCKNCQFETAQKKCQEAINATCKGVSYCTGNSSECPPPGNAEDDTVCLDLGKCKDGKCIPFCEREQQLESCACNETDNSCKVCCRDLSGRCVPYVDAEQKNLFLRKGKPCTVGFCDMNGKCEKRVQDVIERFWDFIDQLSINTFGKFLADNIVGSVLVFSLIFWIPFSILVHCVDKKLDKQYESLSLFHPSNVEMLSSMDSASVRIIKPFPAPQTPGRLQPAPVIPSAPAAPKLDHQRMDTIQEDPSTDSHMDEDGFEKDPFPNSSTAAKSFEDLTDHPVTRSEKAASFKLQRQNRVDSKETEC
Chain of MMP-9 (P14780 94-707): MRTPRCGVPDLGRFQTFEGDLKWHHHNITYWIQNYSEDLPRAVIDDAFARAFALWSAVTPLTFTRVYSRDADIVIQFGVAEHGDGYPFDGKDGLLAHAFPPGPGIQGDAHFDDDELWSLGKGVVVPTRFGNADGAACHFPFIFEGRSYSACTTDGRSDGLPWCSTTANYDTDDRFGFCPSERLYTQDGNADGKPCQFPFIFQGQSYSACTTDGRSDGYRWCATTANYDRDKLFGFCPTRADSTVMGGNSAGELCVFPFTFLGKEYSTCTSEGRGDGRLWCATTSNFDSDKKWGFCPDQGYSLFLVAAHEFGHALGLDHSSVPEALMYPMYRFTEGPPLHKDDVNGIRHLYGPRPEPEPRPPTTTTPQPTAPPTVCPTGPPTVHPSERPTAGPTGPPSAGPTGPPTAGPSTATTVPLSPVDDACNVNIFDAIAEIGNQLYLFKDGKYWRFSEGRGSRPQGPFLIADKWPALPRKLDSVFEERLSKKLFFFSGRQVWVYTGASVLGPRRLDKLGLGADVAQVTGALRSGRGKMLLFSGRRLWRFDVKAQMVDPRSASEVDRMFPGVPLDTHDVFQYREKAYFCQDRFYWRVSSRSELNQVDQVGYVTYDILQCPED
Procedure for MMP-13: The enzyme activity is measured by the rate of the color increase. The thiopeptide substrate is made up fresh as a 20 mM stock in 100% DMSO and the DTNB is dissolved in 100% DMSO as a 100 mM stock and stored in the dark at room temperature. Both the substrate and DTNB are diluted together to 1 mM with substrate buffer (50 mM HEPES pH 7.5, 5 mM CaCl2) before use. […] Alternatively, a fluorescent peptide substrate is used. In this assay, the peptide substrate contains a fluorescent group and a quenching group. Upon cleavage of the substrate by an MMP, the fluorescence that is generated is quantitated on the fluorescence plate reader. […] The substrate is dissolved in methanol and stored frozen in 1 mM aliquots. For the assay, substrate and enzymes are diluted in HCBC buffer to the desired concentrations. Compounds are added to the 96 well plate containing enzyme and the reaction is started by the addition of substrate. […] For either the thiopeptide or fluorescent peptide assays, the slope of the line is calculated and represents the reaction rate. […] The mean (x±sem) of the control rate is calculated and compared for statistical significance (p<0.05) with drug-treated rates using Dunnett's multiple comparison test.
Procedure for TACE: Using 96-well black microtiter plates, each well receives a solution composed of 10 µL TACE (Immunex, final concentration 1µg/mL), 70µL Tris buffer, pH 7.4 containing 10% glycerol (final concentration 10 mM), and 10 µL of test compound solution in DMSO (final concentration 1µM, DMSO concentration <1%) and incubated for 10 minutes at room temperature.
The reaction is read (excitation 340 nm, emission 420 nm) for 10 min. and the increase in fluorescence over time is plotted as a linear line. The slope of the line is calculated and represents the reaction rate.
The linearity of the reaction rate is confirmed (r^2 >0.85). The mean (x±sem) of the control rate is calculated and compared for statistical significance (p<0.05) with drug-treated rates using Dunnett's multiple comparison test.

With `COc1ccc(S(=O)(=O)N(Cc2ccccc2Br)c2c(C)cc(C)cc2C(=O)NO)cc1` [Example 118, 2-[(2-Bromo-benzyl)-(4-methoxy-benzenesulfonyl)-amino]-N-hydroxy-3,5-dimethyl-benzamide], the pIC50 at MMP-1 was 6.61; at MMP-9, 6.46; on MMP-13, 6.64; on TACE it was below 6.00.
`COc1ccc(S(=O)(=O)N(Cc2cccc(Br)c2)c2c(C)cc(C)cc2C(=O)NO)cc1` [Example 119, 2-[(3-Bromo-benzyl)-(4-methoxy-benzenesulfonyl)-amino]-N-hydroxy-3,5-dimethyl-benzamide]: the pIC50 at MMP-1 was 6.65; at MMP-9, 7.57; at MMP-13 it was 7.85; at TACE, 6.60.
Take `COc1ccc(S(=O)(=O)N(Cc2ccc(Br)cc2)c2c(C)cc(C)cc2C(=O)NO)cc1` [Example 120, 2-[(4-Bromo-benzyl)-(4-methoxy-benzenesulfonyl)-amino]-N-hydroxy-3,5-dimethyl-benzamide]: the pIC50 on MMP-1 was 6.62; on MMP-9, 7.74; on MMP-13, 7.41; at TACE, 6.51.
The matching figures for `COc1ccc(S(=O)(=O)N(C)c2c(C)cc(C)cc2C(=O)NO)cc1` [Example 130, N-Hydroxy-2-[(4-methoxy-benzenesulfonyl)-methyl-amino]-3,5-dimethyl-benzamide]: 6.67, 8.40, 7.89 and 7.12.
`CCN(c1c(C)cc(C)cc1C(=O)NO)S(=O)(=O)c1ccc(OC)cc1` [Example 131, 2-[Ethyl-(4-methoxy-benzenesulfonyl)-amino]-N-hydroxy-3,5-dimethyl-benzamide]: the pIC50 on MMP-1 was 6.67; on MMP-9, 7.27; on MMP-13 it was 7.32; at TACE, 7.10.
The matching figures for `COc1ccc(S(=O)(=O)N(Cc2cccnc2)c2c(Br)cc(C)cc2C(=O)NO)cc1` [Example 138, 3-Bromo-N-hydroxy-2-[(4-methoxy-benzenesulfonyl)-pyridin-3-ylmethyl-amino]-5-methyl-benzamide]: 6.59, 7.11, 7.24 and 6.67.
The matching figures for `COc1ccc(S(=O)(=O)N(Cc2ccccc2)c2c(C(=O)NO)cccc2[N+](=O)[O-])cc1` [Example 170, 2-[Benzyl-(4-methoxy-benzenesulfonyl)-amino]-N-hydroxy-3-nitro-benzamide]: 6.46, 7.92, 7.41 and 6.75.
Consider `COc1ccc(S(=O)(=O)N(Cc2ccccc2)c2c(OCCCO)cccc2C(=O)NO)cc1` [Example 174, 2-[Benzyl-(4-methoxy-benzenesulfonyl)-amino]-N-hydroxy 3-(3-hydroxy-propoxy)-benzamide], for which the negative-log IC50 (pIC50) is 6.49 at MMP-1, 7.80 at MMP-9 and 7.15 at MMP-13. On TACE, this compound gave an inhibition at 1 µM of 50%.
As to `COc1ccc(S(=O)(=O)N(Cc2cccnc2)c2c(C)cc(-c3cccs3)cc2C(=O)NO)cc1` [Example 175, N-Hydroxy-2-[(4-methoxybenzenesulfonyl)-pyridin-3-ylmethyl-amino]-3-methyl-5-thiophen-2-yl benzamide], the pIC50 was 7.05 at MMP-1, 8.15 at MMP-9, 8.40 at MMP-13 and 7.24 on TACE.
Regarding `COc1ccc(S(=O)(=O)N(Cc2ccccc2)c2c(C#N)cc(C)cc2C(=O)NO)cc1` [Example 179], the pIC50 at MMP-1 is 6.17; at MMP-9 it was 7.40; at MMP-13, 7.28. In addition, on TACE, at 1 µM the inhibition was 64%.

The values are drawn from patent publication EP0938471B1, “THE PREPARATION AND USE OF ORTHO-SULFONAMIDO ARYL HYDROXAMIC ACIDS AS MATRIX METALLOPROTEINASE AND TACE INHIBITORS” (priority 1996, dated 1998).
